Test: method code SF-AS, from DOI: 10.1080/02772240109358997

Row | Structure (SMILES) | logP
1 | CCOC(=O)CC(CC(=O)OCC)(C(=O)OC(C)C)S(=O)(=O)c1ccc([N+](=O)[O-])cc1 | 3.56
2 | CCCCC(CCCC)(C(=O)OC(C)C)S(=O)(=O)c1ccc([N+](=O)[O-])cc1 | 4.06
3 | CC(C)OC(=O)CC(C(=O)OC(C)C)S(=O)(=O)c1ccc([N+](=O)[O-])cc1 (stereo not drawn) | 2.18
4 | CCCCC(CCCC)(C(=O)OCC)S(=O)(=O)c1ccc([N+](=O)[O-])cc1 | 3.81
5 | CC(C)OC(=O)C(=Cc1ccccc1)S(=O)(=O)c1ccc(Cl)cc1 | 4.18
6 | CCOC(=O)CC(C(=O)OC)S(=O)(=O)c1ccc([N+](=O)[O-])cc1 (stereo not drawn) | 1.4
7 | COC(=O)C(C)(C)S(=O)(=O)c1ccc([N+](=O)[O-])cc1 | 1.38
8 | CC(C(=O)OC1CCCCC1)S(=O)(=O)c1ccc([N+](=O)[O-])cc1 (stereo not drawn) | 2.82
9 | COC(=O)C(C)S(=O)(=O)c1ccc([N+](=O)[O-])cc1 (stereo not drawn) | 1.06
10 | Cc1ccc(S(=O)(=O)C(=Cc2ccccc2)C(=O)OC(C)C)cc1 | 3.92

More lines, now with the values ahead:

Row | logP | Structure (SMILES)
11 | 2.9 | COC(=O)C(=Cc1ccccc1)S(=O)(=O)c1ccc([N+](=O)[O-])cc1
12 | 2.24 | CCC(CC)(C(=O)OC)S(=O)(=O)c1ccc([N+](=O)[O-])cc1
13 | 4.4 | CCOC(=O)C(C)(c1cccc2ccccc12)S(=O)(=O)c1ccc([N+](=O)[O-])cc1 (stereo not drawn)
14 | 3.4 | CCOC(=O)C(Cc1ccccc1)(Cc1ccccc1)S(=O)(=O)c1ccc([N+](=O)[O-])cc1
15 | 3.2 | CCOC(=O)C(=Cc1ccccc1)S(=O)(=O)c1ccc([N+](=O)[O-])cc1
16 | 3.62 | CC(C)OC(=O)C(=Cc1ccccc1)S(=O)(=O)c1ccc([N+](=O)[O-])cc1
17 | 3.68 | CC(C)COC(=O)C(=Cc1ccccc1)S(=O)(=O)c1ccc([N+](=O)[O-])cc1
18 | 2.3 | C=CCC(C)(C(=O)OCC)S(=O)(=O)c1ccc([N+](=O)[O-])cc1 (stereo not drawn)

From the SangsterLogP compilation
